Laboratory results as given in ChEMBL document CHEMBL4602676, “Discovery and Development of 3-(6-Chloropyridine-3-yloxymethyl)-2-azabicyclo[3.1.0]hexane Hydrochloride (SUVN-911): A Novel, Potent, Selective, and Orally Active Neuronal Nicotinic Acetylcholine α4β2 Receptor Antagonist for the Treatment of Depression” (J Med Chem, 2020).

Experiments:
[1] = target: Neuronal acetylcholine receptor; alpha4/beta2 (Homo sapiens, UniProt P17787+P43681); assay: Displacement of [3H]cytisine from human alpha4beta2 nAChR expressed in CHOK1 cell membrane by microbeta scintillation counting method; assay type: cell membranes, CHO-K1
[2] = Metabolic stability in human liver microsomes assessed as compound metabolism incubated for 30 mins in presence of NADPH by LC-MS/MS analysis; assay type: ADME, Microsome; conditions: read-out: Drug metabolism
[3] = Metabolic stability in rat liver microsomes assessed as compound metabolism incubated for 30 mins in presence of NADPH by LC-MS/MS analysis; assay type: ADME, Microsome; conditions: read-out: Drug metabolism
[4] = target: Cytochrome P450 2D6 (Homo sapiens, UniProt P10635); assay: Inhibition of CYP2D6 in human liver microsomes using dextromethorphan as substrate incubated for 12 min in presence of NADPH by LC-MS/MS analysis; assay type: ADME
[5] = target: Cytochrome P450 3A4 (Homo sapiens, UniProt P08684); assay: Inhibition of CYP3A4 in human liver microsomes using midazolam as substrate incubated for 2 min in presence of NADPH by LC-MS/MS analysis; assay type: ADME
[6] = target: Neuronal acetylcholine receptor; alpha3/beta4 (Homo sapiens, UniProt P30926+P32297); assay: Displacement of [3H]epibatidine from human alpha3beta4 nAChR expressed in IMR32 cell membrane by microbeta scintillation counting method; assay type: cell membranes, IMR-32
[7] = Oral bioavailability in Wistar rat at 10 ml/kg measured upto 24 hrs by LC-MS/MS analysis; assay type: ADME, organism-based; conditions: in vivo
[8] = Ratio of drug level in brain to plasma in Wistar rat at 10 ml/kg, po or 2 ml/kg, iv measured upto 24 hrs by LC-MS/MS analysis; assay type: ADME, organism-based; conditions: brain and plasma, read-out: BPR
[9] = Cmax in Wistar rat at 10 ml/kg, po or 2 ml/kg, iv measured upto 24 hrs by LC-MS/MS analysis; assay type: ADME, organism-based; conditions: in vivo
[10] = AUC in Wistar rat at 10 ml/kg, po or 2 ml/kg, iv measured upto 24 hrs by LC-MS/MS analysis; assay type: ADME, organism-based; conditions: in vivo
[11] = Half life in Wistar rat at 10 ml/kg, po or 2 ml/kg, iv measured upto 24 hrs by LC-MS/MS analysis; assay type: ADME, organism-based; conditions: in vivo
[12] = tested on: Rattus norvegicus; assay: Antidepressant activity in Wistar rat assessed as immobility time at 10.0 mg/kg, po measured for 5 mins by forced swim test (reference value: 241.9 to 281.6 sec); assay type: functional
[13] = tested on: Rattus norvegicus; assay: Antidepressant activity in Wistar rat assessed as immobility time at 3.0 mg/kg, po measured for 5 mins by forced swim test (reference value: 241.9 to 281.6 sec); assay type: functional

Neuronal acetylcholine receptor; alpha4/beta2, sequence (P17787 whole entry): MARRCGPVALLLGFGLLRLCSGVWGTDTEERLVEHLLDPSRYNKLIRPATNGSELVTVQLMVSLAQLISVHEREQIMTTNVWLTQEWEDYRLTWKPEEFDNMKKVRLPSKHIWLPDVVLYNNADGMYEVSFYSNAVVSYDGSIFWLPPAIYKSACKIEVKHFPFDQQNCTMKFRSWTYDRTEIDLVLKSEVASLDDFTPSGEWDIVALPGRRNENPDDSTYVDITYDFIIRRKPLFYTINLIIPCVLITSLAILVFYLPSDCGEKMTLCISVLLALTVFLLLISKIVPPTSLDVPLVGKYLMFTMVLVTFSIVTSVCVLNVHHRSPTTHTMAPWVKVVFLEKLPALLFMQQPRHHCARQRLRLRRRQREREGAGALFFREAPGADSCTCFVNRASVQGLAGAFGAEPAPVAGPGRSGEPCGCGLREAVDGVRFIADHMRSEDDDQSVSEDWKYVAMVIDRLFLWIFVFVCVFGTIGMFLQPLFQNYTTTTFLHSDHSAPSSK
Neuronal acetylcholine receptor; alpha4/beta2, sequence (P43681 whole entry): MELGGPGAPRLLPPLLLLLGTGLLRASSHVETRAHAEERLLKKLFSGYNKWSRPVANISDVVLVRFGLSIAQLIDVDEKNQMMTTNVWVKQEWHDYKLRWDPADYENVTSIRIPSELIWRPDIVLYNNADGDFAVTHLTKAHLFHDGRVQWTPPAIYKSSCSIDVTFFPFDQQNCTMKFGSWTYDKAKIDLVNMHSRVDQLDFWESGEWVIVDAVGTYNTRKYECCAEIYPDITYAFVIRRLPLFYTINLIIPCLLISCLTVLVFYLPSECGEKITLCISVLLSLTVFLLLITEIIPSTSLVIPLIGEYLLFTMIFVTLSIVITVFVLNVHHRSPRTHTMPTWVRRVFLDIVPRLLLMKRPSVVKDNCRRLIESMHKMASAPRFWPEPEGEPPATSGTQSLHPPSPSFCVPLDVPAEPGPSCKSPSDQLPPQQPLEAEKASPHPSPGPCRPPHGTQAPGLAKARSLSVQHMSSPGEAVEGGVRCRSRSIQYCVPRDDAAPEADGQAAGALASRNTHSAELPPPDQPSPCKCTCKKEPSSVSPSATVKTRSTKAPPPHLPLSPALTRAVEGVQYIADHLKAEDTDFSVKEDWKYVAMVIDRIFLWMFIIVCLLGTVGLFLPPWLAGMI
Cytochrome P450 2D6, sequence (P10635 whole entry): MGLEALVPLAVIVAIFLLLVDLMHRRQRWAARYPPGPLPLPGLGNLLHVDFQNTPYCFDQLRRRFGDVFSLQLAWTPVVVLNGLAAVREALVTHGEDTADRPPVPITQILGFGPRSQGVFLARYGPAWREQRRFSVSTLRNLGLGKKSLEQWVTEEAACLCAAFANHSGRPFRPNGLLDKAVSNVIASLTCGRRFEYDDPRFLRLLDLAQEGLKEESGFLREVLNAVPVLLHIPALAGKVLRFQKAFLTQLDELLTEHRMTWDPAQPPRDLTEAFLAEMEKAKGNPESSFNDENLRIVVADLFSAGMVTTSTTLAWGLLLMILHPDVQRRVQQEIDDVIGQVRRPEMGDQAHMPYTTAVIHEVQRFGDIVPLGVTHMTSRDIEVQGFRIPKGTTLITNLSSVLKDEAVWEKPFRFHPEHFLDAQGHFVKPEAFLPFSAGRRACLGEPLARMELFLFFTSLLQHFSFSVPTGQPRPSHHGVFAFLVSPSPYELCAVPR
Neuronal acetylcholine receptor; alpha3/beta4, sequence (P30926 whole entry): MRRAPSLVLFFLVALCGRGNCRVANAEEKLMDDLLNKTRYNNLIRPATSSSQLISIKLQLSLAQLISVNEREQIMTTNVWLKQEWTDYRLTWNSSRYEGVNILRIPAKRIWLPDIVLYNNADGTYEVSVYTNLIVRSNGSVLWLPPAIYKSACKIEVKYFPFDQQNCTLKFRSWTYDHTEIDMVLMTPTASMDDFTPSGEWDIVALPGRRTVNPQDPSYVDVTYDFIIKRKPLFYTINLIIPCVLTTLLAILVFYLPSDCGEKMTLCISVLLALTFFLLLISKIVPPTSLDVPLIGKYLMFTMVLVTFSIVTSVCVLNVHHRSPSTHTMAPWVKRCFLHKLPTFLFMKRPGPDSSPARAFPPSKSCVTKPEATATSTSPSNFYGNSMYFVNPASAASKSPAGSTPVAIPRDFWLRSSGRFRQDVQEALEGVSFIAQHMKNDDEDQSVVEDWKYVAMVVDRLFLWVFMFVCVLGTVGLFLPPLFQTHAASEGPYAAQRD
Neuronal acetylcholine receptor; alpha3/beta4, sequence (P32297 whole entry): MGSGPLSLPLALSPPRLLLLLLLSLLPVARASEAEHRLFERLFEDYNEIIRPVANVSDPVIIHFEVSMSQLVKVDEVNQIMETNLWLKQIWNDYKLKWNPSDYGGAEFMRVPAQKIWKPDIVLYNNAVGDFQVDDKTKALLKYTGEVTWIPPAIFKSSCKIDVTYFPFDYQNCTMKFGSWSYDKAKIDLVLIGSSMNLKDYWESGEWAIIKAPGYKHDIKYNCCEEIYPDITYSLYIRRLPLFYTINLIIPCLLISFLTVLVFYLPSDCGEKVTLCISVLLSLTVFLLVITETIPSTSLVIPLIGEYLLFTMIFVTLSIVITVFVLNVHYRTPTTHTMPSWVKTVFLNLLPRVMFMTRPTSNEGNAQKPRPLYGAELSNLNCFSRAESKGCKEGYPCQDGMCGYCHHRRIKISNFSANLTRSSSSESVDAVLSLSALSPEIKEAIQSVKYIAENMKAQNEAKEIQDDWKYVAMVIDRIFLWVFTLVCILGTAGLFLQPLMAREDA
Cytochrome P450 3A4, sequence (P08684 whole entry): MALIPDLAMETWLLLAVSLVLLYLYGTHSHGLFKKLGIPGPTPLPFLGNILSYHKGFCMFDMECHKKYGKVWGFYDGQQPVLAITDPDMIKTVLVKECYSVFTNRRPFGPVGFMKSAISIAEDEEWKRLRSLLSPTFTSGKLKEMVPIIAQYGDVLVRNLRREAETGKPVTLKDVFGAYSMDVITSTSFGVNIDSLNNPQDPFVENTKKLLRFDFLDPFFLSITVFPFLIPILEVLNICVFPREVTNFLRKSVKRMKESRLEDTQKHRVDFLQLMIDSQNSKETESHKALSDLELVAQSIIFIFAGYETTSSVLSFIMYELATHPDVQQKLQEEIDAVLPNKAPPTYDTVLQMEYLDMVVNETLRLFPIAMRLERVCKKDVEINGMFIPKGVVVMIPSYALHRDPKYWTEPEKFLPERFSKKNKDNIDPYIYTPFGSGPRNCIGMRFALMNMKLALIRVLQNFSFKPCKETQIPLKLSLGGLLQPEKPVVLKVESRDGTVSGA

Structure (SMILES): Cc1ccc(OC[C@@H]2C[C@H]3C[C@H]3N2)cn1
- Ki [1]: 0.0262 µM

Structure (SMILES): Clc1ccc(OC[C@H]2C[C@H]3C[C@H]3N2)cn1
- metabolised at 0.5 h [2]: 18.3%
- metabolised at 0.5 h [3]: 69.6%
- IC50 [4]: 32.1 µM
- Ki [1]: 0.329 µM
- IC50 [5]: > 45 µM
- Ki [6]: 0.525 µM

Structure (SMILES): Clc1cncc(OC[C@]23C[C@H]2CCN3)c1
- Ki [1]: 0.827 µM

Structure (SMILES): Cc1ncccc1OC[C@@H]1C[C@H]2C[C@H]2N1C
- Ki [1]: 0.231 µM

Structure (SMILES): CN1[C@H](COc2cccnc2F)C[C@H]2C[C@H]21
- Ki [1]: 0.0319 µM

Structure (SMILES): Cl.c1cncc(OC[C@@H]2C[C@@H]3C[C@@H]3N2)c1
- metabolised at 0.5 h [2]: 2.6%
- metabolised at 0.5 h [3]: 3.9%
- IC50 [4]: 30.2 µM
- bioavailability [7]: 87%
- Ki [1]: 1.34 µM
- Kp at 24 h [8]: 3.07
- Cmax [9]: 1500 ng/mL
- AUC at 24 h [10]: 2710 ng·h/mL
- IC50 [5]: 31.9 µM
- Ki [6]: 0.558 µM
- half-life [11]: 64.8 min

Structure (SMILES): C[C@@]12C[C@@H]1CC(COc1ccc(Cl)nc1)N2 (stereo not given in full)
- Ki [1]: 6.88 µM

Structure (SMILES): Brc1cncc(OC[C@@H]2C[C@@H]3C[C@@H]3N2)c1
- Ki [1]: 0.0029 µM

Structure (SMILES): c1nnc(-c2cncc(OC[C@@H]3C[C@H]4C[C@H]4N3)c2)o1
- Ki [1]: 0.131 µM

Structure (SMILES): Cc1nnc(-c2cncc(OC[C@@H]3C[C@H]4C[C@H]4N3)c2)o1
- Ki [1]: 0.407 µM

Structure (SMILES): Clc1cc(OC[C@@H]2C[C@H]3C[C@H]3N2)c(Cl)nc1Cl
- Ki [1]: 0.265 µM

Structure (SMILES): Clc1nccnc1OC[C@@H]1C[C@H]2C[C@H]2N1
- Ki [1]: 5.11 µM

Structure (SMILES): c1ccc2ncc(OC[C@@H]3C[C@H]4C[C@H]4N3)cc2c1
- Ki [1]: 0.6 µM

Structure (SMILES): C[C@@]12C[C@@H]1CC(COc1cccnc1Cl)N2 (stereo not given in full)
- Ki [1]: > 10 µM

Structure (SMILES): Cl.Clc1ccc(OC[C@@H]2CC[C@H]3C[C@H]3N2)cn1
- metabolised at 0.5 h [2]: 98.9%
- metabolised at 0.5 h [3]: 72.8%
- IC50 [4]: 79 µM
- bioavailability [7]: 48%
- Time [12]: 264.9 s
- Ki [1]: 0.0205 µM
- Kp at 24 h [8]: 0.16
- Cmax [9]: 3340 ng/mL
- AUC at 24 h [10]: 4480 ng·h/mL
- IC50 [5]: > 45 µM
- Ki [6]: > 10 µM
- Time [13]: 238.6 s
- half-life [11]: 40.8 min

Structure (SMILES): Cc1ccc(OC[C@@H]2C[C@H]3C[C@H]3N2C)cn1
- Ki [1]: 0.02 µM

Structure (SMILES): Clc1ccc(OCC[C@@H]2C[C@H]3C[C@H]3N2)cn1
- Ki [1]: 0.327 µM

Structure (SMILES): CN1[C@H](COc2cncc(Cl)c2)C[C@H]2C[C@H]21
- Ki [1]: 0.00037 µM

Structure (SMILES): C[C@@]12C[C@@H]1CC(COc1cccnc1)N2 (stereo not given in full)
- Ki [1]: 0.0036 µM

Structure (SMILES): c1cc(OC[C@@H]2C[C@H]3C[C@H]3N2)ccn1
- Ki [1]: > 10 µM

Structure (SMILES): Brc1ccc(OC[C@@H]2C[C@H]3C[C@H]3N2)cn1
- Ki [1]: 0.0465 µM

Structure (SMILES): Brc1cncc(OC[C@@H]2C[C@H]3C[C@H]3N2)c1
- Ki [1]: 0.0064 µM

Structure (SMILES): C[C@@]12C[C@@H]1CC(COc1cncc(Cl)c1)N2 (stereo not given in full)
- Ki [1]: 0.577 µM

Structure (SMILES): Clc1cc(OC[C@@H]2C[C@H]3C[C@H]3N2)cnc1Cl
- Ki [1]: 0.149 µM

Structure (SMILES): Cl.c1cncc(OC[C@@H]2CC[C@H]3C[C@H]3N2)c1
- metabolised at 0.5 h [2]: 53.1%
- metabolised at 0.5 h [3]: 17%
- IC50 [4]: > 45 µM
- Ki [1]: 0.0114 µM
- Kp at 24 h [8]: 0.32
- Cmax [9]: 665 ng/mL
- IC50 [5]: > 45 µM
- Ki [6]: 0.0684 µM
- half-life [11]: 0.6 min

Structure (SMILES): CN1[C@H](COc2cccnc2Cl)C[C@H]2C[C@H]21
- Ki [1]: 0.0281 µM

Structure (SMILES): c1cnc(OC[C@@H]2C[C@H]3C[C@H]3N2)cn1
- Ki [1]: > 10 µM

Structure (SMILES): CN1[C@H](COc2cccnc2)C[C@H]2C[C@H]21
- Ki [1]: 0.0055 µM

Structure (SMILES): Clc1cncc(OCC[C@@H]2C[C@H]3C[C@H]3N2)c1
- Ki [1]: 0.395 µM

Structure (SMILES): Cl.Clc1ccc(OC[C@@H]2C[C@@H]3C[C@@H]3N2)cn1
- metabolised at 0.5 h [2]: 13.6%
- metabolised at 0.5 h [3]: 36%
- IC50 [4]: > 45 µM
- bioavailability [7]: 66%
- Ki [1]: 0.0064 µM
- Kp at 24 h [8]: 2.14
- Cmax [9]: 638 ng/mL
- AUC at 24 h [10]: 1620 ng·h/mL
- IC50 [5]: > 45 µM
- Ki [6]: 1.02 µM
- half-life [11]: 164 min
